Test results reported in patent US12070470B2, “Topoisomerase inhibitor for mimicking the effect of ionizing radiations on T cells” (Novagray, priority 2018, dated 2024).

System: CD8 T-lymphocyte
Assay: Etoposide-induced CD8 T-lymphocyte apoptosis procedure (flow cytometry, compared with 8 Gy RILA)
Type: cell-based, human
Conditions: for Corresponding etoposide concentration: x̃i^co: concentration corresponding to 8 Gy RILA, applied at the start of cell culture, whole blood
Method: Blood samples were purchased from Etablissement Français du Sang (EFS) with the convention number 21PLER2016-0100 AV01. Blood samples were collected from healthy donors in 5 mL heparinized tubes without separation gel.
Blood cells were grown in RPMI-1640 with glutamax (Fisher scientific, France) supplemented with 20% fetal calf serum (FCS) (EuroBio, France). Cells were maintained at 37° C. with 5% CO2 during the experiments.
Etoposide (EuroMedex) was solubilized in sterile dimethyl-sulfoxide (DMSO) at 75 mg/mL according to manufacturer instructions and stored at −80° C.
Before radiotherapy (RT), one blood sample was collected from each patient in a 5-mL heparinized tube. Twenty or twenty-four hours after blood collection, 200 μl of blood were aliquoted into a 6-well plate containing 2 mL of RPMI-20% FCS. All tests were carried out in triplicate for both 0 and 8 Gy. Ex-vivo irradiations were delivered after 24 hours of blood cell culture using the Xenx irradiator platform (XStrahl, UK). Then, the plates were immediately incubated for 48 hours at 37° C. (5% C02).
Samples were then centrifuged for 5 min at 300 g. The pellets were resuspended in phosphate-buffered saline (PBS) containing 10 μl of anti-human CD8-FITC antibody (Becton Dickinson, USA) and incubated for 20 minutes at room temperature. Then, red blood cells were lysed by addition of 4 ml of lysis buffer diluted 1:10 in water (Becton Dickinson, USA). After another 20 minutes incubation time at room temperature, samples were centrifuged for 5 min at 300 g and the pellets were washed with 3 ml of PBS. Pellets were suspended in 200 μl of PBS containing 25 μg/ml of propidium iodide (Sigma, France) and 5 μl of RNAse A at 10 mg/ml (Qiagen, France). The samples were analyzed by flow cytometry within the next hours, using the CytoFlex (Beckman Coulter, USA).
Different irradiation doses (0 Gy, 6 Gy, 8 Gy and 10 Gy) and different Etoposide concentrations (40 μg/mL, 60 μg/mL, 70 μg/mL, 80 μg/mL, 100 μg/mL) were applied to aliquots of the same blood sample.
Irradiations and culture were performed as previously described. The staining was performed 48 hours after the irradiation using the same protocol as previously described.
For the Etoposide treatment, two hundred microliters of blood were aliquoted into a 6-well plate containing 2 mL of RPMI-20% FCS-Etoposide 24 hours after blood cell collection. The cell culture media containing the different concentrations of etoposide were made fresh just before starting the cell culture. After etoposide incubation with blood cells for at least 50 hours (generally more than about 60 hours, in particular between 65 and 75 hours), samples were stained for flow cytometry analysis as described above.
Two mixed linear models with fixed intercept, fixed slope and random intercept were used to model the RILA rate evolution according to the compound or to the irradiation dose in Gray.

SMILES: COc1cc([C@@H]2c3cc4c(cc3[C@@H](O[C@@H]3O[C@@H]5CO[C@@H](C)O[C@H]5[C@H](O)[C@H]3O)[C@H]3COC(=O)[C@H]23)OCO4)cc(OC)c1O [etoposide]
- Corresponding etoposide concentration: x̃i^co (Donor 1): 66.2 µg/mL
- Corresponding etoposide concentration: x̃i^co (Donor 2): 70.1 µg/mL
- Corresponding etoposide concentration: x̃i^co (Donor 3): 67.1 µg/mL
- Corresponding etoposide concentration: x̃i^co (Donor 4): 106.1 µg/mL
- Corresponding etoposide concentration: x̃i^co (Donor 5): 87.1 µg/mL
- concentration at which the apoptosis rate obtained after irradiation is achieved (treatment applied at the start of blood cell culture): less than 150 μg/ml
